In US20220017833A1, “Methods and Compositions for Scavenging Sulfides from Hydrocarbon Fluids and Aqueous Streams” (Nexgen Oilfield Chemicals, LLC, priority 2019, published 2022):

Experiment: Spent Water Flowability Test
Type: physicochemical
Parameters: key: Pass: A homogeneous, single-phase solution or thin layer of readily flowable non-sticking liquid constitutes a pass.; Fail: Any solids or thick, sticky insoluble liquid is a fail.; PASS: A homogeneous, single-phase solution or thin layer of readily flowable non-sticking liquid constitutes a pass.; FAIL: Any solids or thick, sticky insoluble liquid is a fail
Settings: Table 5; glyoxy alkyl diaminol in water and MeOH only
Experimental: In field applications, spent scavenger is disposed of through a wastewater system. Spent scavenger might be soluble in the scavenger system but insoluble in wastewater. If it cannot be disposed of, it is not suitable for use. To ensure wastewater processing runs trouble free, spent scavenger passing the Spent Solids Fouling Test is then added to 39 times its weight in water (2.5%) and examined again for insoluble solids and viscous, sticky liquids that might foul the wastewater system. Any solids or thick, sticky insoluble liquid is a fail. A homogeneous, single-phase solution or thin layer of readily flowable non-sticking liquid constitutes a pass.

Q: For CC(C)NC(O)C(O)NC(C)C (stereo not shown) [GIDA, 1,2-bis[(propan-2-yl)amino]ethane-1,2-diol], which “Spent Water Flowability” value is on record?
A: Its value is “Fail”.
